Reference: paper PMC8892849 (ACS Omega, 2022)

Columns and labels:
[1] = tested on: hepatocellular carcinoma (HepG-2); assay: In vitro cytotoxic assay; type: cell-based, human; conditions: for IC50: Homo sapiens, HepG2, 48 h, read-out: IC50 (mean ± SEM) HepG-2; for SI (selectivity index) HepG-2: normal PBMC vs HepG-2
[2] = tested on: prostate carcinoma (PC-3); assay: In vitro cytotoxic assay; type: cell-based, human; conditions: for IC50: Homo sapiens, 48 h, read-out: IC50 (mean ± SEM) PC-3; for SI (selectivity index) PC-3: normal PBMC vs PC-3
[3] = tested on: breast adenocarcinoma (MCF-7); assay: In vitro cytotoxic assay; type: cell-based, human; conditions: for IC50: Homo sapiens, MCF7, 48 h, read-out: IC50 (mean ± SEM) MCF-7; for SI (selectivity index) MCF-7: normal PBMC vs MCF-7
[4] = tested on: non-small cell lung cancer cells (A-549); assay: In vitro cytotoxic assay; type: cell-based, human; conditions: for IC50: Homo sapiens, A549, 48 h, read-out: IC50 (mean ± SEM) A-549; for SI (selectivity index) A-549: normal PBMC vs A-549
In vitro cytotoxic assay = type: cell-based; conditions: normal peripheral blood mononuclear cells (PBMCs)
p53 ubiquitination = assay: In vivo p53 ubiquitination inhibition of MCF-7 cells; type: cell-based; conditions: Homo sapiens, MCF7, 6 h, read-out: IC50 (mean ± SEM) p53 ubiquitination
EGFR^WT = EGFR^WT (Homo sapiens, UniProt P00533); assay: HTRF kinase inhibition assay, EGFR^WT
EGFR^T790M = EGFR^T790M (Homo sapiens, UniProt P00533, T790M); assay: HTRF kinase inhibition assay, EGFR^T790M
EGFR^T790M, sequence (P00533 25-1210 T790M): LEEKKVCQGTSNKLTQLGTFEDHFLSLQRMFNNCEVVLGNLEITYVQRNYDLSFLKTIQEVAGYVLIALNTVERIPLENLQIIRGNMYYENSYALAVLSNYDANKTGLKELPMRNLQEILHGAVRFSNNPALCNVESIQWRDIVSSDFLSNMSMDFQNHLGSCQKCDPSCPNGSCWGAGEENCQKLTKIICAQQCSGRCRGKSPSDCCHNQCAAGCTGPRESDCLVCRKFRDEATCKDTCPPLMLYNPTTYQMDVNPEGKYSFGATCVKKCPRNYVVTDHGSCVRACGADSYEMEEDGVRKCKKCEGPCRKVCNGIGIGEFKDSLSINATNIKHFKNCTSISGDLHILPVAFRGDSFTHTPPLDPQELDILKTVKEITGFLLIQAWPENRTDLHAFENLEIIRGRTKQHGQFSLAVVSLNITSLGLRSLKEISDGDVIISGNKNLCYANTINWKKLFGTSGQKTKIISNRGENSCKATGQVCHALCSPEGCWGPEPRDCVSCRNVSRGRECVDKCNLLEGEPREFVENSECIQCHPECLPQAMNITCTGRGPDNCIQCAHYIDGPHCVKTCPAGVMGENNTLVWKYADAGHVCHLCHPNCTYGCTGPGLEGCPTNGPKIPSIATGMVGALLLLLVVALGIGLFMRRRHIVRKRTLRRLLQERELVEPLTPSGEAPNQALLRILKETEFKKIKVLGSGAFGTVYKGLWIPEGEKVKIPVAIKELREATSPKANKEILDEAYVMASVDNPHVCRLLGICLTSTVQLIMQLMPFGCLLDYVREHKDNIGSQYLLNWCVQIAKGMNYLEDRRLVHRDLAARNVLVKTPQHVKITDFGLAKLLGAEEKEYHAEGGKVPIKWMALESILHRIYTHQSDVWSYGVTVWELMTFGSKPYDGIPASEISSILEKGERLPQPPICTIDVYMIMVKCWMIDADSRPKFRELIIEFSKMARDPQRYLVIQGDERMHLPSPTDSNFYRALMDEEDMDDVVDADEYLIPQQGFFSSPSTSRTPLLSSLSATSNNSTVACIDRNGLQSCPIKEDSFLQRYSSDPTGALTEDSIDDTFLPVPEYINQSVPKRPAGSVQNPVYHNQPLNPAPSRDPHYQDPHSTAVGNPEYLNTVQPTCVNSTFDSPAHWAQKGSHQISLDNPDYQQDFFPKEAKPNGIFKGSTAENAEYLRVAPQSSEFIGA

EGFR^WT, sequence (P00533 25-1210): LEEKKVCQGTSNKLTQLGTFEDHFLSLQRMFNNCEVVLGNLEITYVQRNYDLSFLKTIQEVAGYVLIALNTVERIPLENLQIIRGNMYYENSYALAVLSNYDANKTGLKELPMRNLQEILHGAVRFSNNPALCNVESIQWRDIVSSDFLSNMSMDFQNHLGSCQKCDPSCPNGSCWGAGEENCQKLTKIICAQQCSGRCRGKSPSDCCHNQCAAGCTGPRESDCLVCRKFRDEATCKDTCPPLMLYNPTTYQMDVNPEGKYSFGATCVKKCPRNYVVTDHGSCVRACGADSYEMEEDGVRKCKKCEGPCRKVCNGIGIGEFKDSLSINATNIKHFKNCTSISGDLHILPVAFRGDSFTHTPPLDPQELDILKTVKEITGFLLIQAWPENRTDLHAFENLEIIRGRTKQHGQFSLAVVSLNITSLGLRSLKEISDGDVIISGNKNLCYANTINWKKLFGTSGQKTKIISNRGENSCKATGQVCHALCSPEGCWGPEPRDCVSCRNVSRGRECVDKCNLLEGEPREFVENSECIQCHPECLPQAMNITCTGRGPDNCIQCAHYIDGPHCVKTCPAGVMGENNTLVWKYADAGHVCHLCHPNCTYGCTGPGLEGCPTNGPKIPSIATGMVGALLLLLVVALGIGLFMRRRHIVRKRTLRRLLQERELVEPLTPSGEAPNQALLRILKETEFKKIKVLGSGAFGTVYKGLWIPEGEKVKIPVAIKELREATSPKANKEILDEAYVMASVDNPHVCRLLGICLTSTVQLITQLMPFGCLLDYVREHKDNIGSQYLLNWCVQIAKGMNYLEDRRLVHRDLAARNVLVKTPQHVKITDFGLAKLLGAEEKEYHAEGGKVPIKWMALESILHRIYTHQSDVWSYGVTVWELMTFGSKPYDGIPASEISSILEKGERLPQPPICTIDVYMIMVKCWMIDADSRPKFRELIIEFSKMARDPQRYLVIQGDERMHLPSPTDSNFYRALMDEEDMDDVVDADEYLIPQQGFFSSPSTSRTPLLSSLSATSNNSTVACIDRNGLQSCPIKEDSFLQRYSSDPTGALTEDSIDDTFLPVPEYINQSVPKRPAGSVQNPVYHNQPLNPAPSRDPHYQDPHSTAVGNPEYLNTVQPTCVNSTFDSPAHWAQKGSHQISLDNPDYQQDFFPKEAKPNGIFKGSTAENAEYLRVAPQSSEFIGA

| IC50 (p53 ubiquitination) [µM] | IC50 (EGFR^WT) [µM] | IC50 (EGFR^T790M) [µM] | fold more potent EGFR^WT inhibitor than erlotinib (EGFR^WT; EGFR^WT) [fold] | SMILES | IC50 [1] [µM] | IC50 [2] [µM] | IC50 [3] [µM] | IC50 [4] [µM] | IC50 at 48 h (In vitro cytotoxic assay) [µM] | SI (selectivity index) HepG-2 [1] | SI (selectivity index) PC-3 [2] | SI (selectivity index) MCF-7 [3] | SI (selectivity index) A-549 [4] | folds more potent than doxorubicin and erlotinib ([3]; MCF-7 cells) [folds] | folds more potent than doxorubicin ([4]; A-549 cell line) [folds] | folds less potency compared to erlotinib ([4]; A-549) [folds] |
| --- | --- | --- | --- | --- | --- | --- | --- | --- | --- | --- | --- | --- | --- | --- | --- | --- |
| – | – | – | – | CC(C)NC(=S)NC(=O)Cc1ccccc1 [Compound 2a, N-(Isopropylcarbamothioyl)-2-phenylacetamide] | 57.85 ± 0.07 | 26.8 ± 2.21 | 37.73 ± 0.08 | 34.57 ± 0.06 | 121 ± 11.3 | – | – | – | – | – | – | – |
| – | – | – | – | Nc1ccccc1NC(=S)NC(=O)Cc1ccccc1 [Compound 2c, N-((2-Aminophenyl)carbamothioyl)-2-phenylacetamide] | 47.66 ± 0.04 | 25.44 ± 0.04 | 21.76 ± 0.08 | 27.81 ± 0.04 | 145 ± 14.9 | – | – | – | – | – | – | – |
| – | – | – | – | O=C(Cc1ccccc1)NC(=S)Nc1cccc(O)c1 [Compound 2d, N-((3-Hydroxyphenyl)carbamothioyl)-2-phenylacetamide] | 34.77 ± 0.03 | 39.3 | 24.74 ± 0.08 | 20.84 ± 0.04 | 158 ± 16.4 | – | – | – | – | – | – | – |
| – | – | – | – | O=C(Cc1ccccc1)NC(=S)Nc1ccc([N+](=O)[O-])cc1Cl [Compound 2e, N-((2-Chloro-4-nitrophenyl)carbamothioyl)-2-phenylacetamide] | 37.76 ± 0.05 | 40.56 ± 0.05 | 25.64 ± 0.08 | 25.96 ± 0.05 | 169 ± 17.4 | – | – | – | – | – | – | – |
| – | – | – | – | O=C(Cc1ccccc1)Nc1nc2ccccc2[nH]1 [Compound 3, N-(1H-Benzo[d]imidazol-2-yl)-2-phenylacetamide] | 37.73 ± 0.02 | 17.29 ± 0.03 | 6.59 ± 0.07 | 10.42 ± 0.05 | 179 ± 18.8 | – | – | – | – | – | – | – |
| 0.00068 ± 1e-05 | 0.25 ± 0.01 | 0.17 ± 0.05 | – | CC(C)Nc1nnc(Cc2ccccc2)[nH]1 [Compound 5a, 5-Benzyl-N-isopropyl-4H-1,2,4-triazol-3-amine] | 35.66 ± 0.04 | 16.49 ± 0.05 | 5.42 ± 0.05 | 10.37 ± 0.04 | 175 ± 18.2 | SI = 4.90 | SI = 10.60 | SI = 32.26 | SI = 16.86 | – | – | – |
| 0.00062 ± 5e-05 | 0.22 ± 0.15 | 0.13 ± 0.11 | – | c1ccc(Cc2nnc(Nc3nccs3)[nH]2)cc1 [Compound 5b, N-(5-Benzyl-4H-1,2,4-triazol-3-yl)thiazol-2-amine] | 38.49 ± 0.02 | 18.22 ± 0.03 | 4.18 ± 0.03 | 8.27 ± 0.03 | 166 ± 17.4 | SI = 4.30 | SI = 9.09 | SI = 39.65 | SI = 20.04 | – | – | – |
| – | 0.24 ± 0.3 | 0.14 | – | Oc1cccc(Nc2nnc(Cc3ccccc3)[nH]2)c1 [Compound 5c, 3-((5-Benzyl-4H-1,2,4-triazol-3-yl)amino)phenol] | 27.59 ± 0.04 | 18.44 ± 0.04 | 4.33 ± 0.04 | 12.3 ± 0.04 | 146 ± 16.1 | SI = 5.23 | SI = 7.93 | SI = 33.79 | SI = 11.89 | – | – | – |
| – | 0.18 ± 0.1 | 0.12 ± 0.18 | – | c1ccc(Cc2nc(Nc3nccs3)n(-c3ccccc3)n2)cc1 [Compound 6a, N-(3-Benzyl-1-phenyl-1H-1,2,4-triazol-5-yl)thiazol-2-amine] | 10.48 ± 0.03 | 16.3 ± 0.09 | 4.3 ± 0.04 | 5.2 ± 0.03 | 157 ± 16.9 | SI = 15.02 | SI = 9.65 | SI = 36.61 | SI = 30.27 | – | – | – |
| 0.0005 ± 5e-05 | 0.08 ± 0.05 | 0.09 ± 0.01 | 1 | Oc1cccc(Nc2nc(Cc3ccccc3)nn2-c2ccccc2)c1 [Compound 6b, 3-((3-Benzyl-1-phenyl-1H-1,2,4-triazol-5-yl)amino)phenol] | 5.47 ± 0.02 | 13.21 ± 0.06 | 1.29 ± 0.03 | 3.18 ± 0.03 | 178 ± 17.7 | SI = 32.58 | SI = 13.49 | SI = 138.16 | SI = 56.04 | 3.2 | 2.6 | – |
| 0.00048 ± 2e-05 | 0.15 ± 0.02 | 0.13 ± 0.07 | – | O=[N+]([O-])c1ccc(Nc2nc(Cc3ccccc3)nn2-c2ccccc2)c(Cl)c1 [Compound 6c, 3-Benzyl-N-(2-chloro-4-nitrophenyl)-1-phenyl-1H-1,2,4-triazol-5-amine] | 7.73 ± 0.04 | 26.41 ± 0.05 | 2.51 ± 0.06 | 5.8 ± 0.05 | 188 ± 19.8 | SI = 24.27 | SI = 7.10 | SI = 74.76 | SI = 32.35 | – | – | – |
| – | 0.22 ± 0.05 | 0.18 ± 0.11 | – | O=c1nc(Cc2ccccc2)[nH]c(Nc2nccs2)n1 [Compound 7, 4-Benzyl-6-(thiazol-2-ylamino)-1,3,5-triazin-2(5H)-one] | 29.75 ± 0.03 | 17.9 ± 0.03 | 4.65 ± 0.07 | 7.43 ± 0.04 | 165 ± 18.1 | – | – | – | – | – | – | ~2 |
| – | – | – | – | CC(C)N=c1nc(Cc2ccccc2)[nH]c(=S)[nH]1 [Compound 8a, 6-Benzyl-4-(isopropylimino)-3,4-dihydro-1,3,5-triazine-2(1H)-thione] | 59.84 ± 0.05 | 36.55 ± 0.03 | 13.75 ± 0.08 | 25.46 ± 0.05 | 173 ± 18.9 | SI = 2.91 | SI = 4.74 | SI = 12.61 | SI = 6.81 | – | – | – |
| – | – | – | – | S=c1[nH]c(Cc2ccccc2)nc(=Nc2nccs2)[nH]1 [Compound 8b, 6-Benzyl-4-(thiazol-2-ylimino)-3,4-dihydro-1,3,5-triazine-2(1H)-thione] | 60.48 ± 0.05 | 42.56 ± 0.06 | 17.95 ± 0.04 | 37.21 ± 0.03 | 197 ± 20.7 | SI = 3.25 | SI = 4.62 | SI = 10.95 | SI = 5.28 | – | – | – |
| – | – | – | – | Oc1cccc(N=c2nc(Cc3ccccc3)[nH]c(=S)[nH]2)c1 [Compound 8c, 6-Benzyl-4-((3-hydroxyphenyl)imino)-3,4-dihydro-1,3,5-triazine-2(1H)-thione] | 45.49 ± 0.04 | 32.48 ± 0.04 | 10.31 ± 0.04 | 8.29 ± 0.03 | 189 ± 19.9 | SI = 4.15 | SI = 5.81 | SI = 18.32 | SI = 22.78 | – | – | – |
| – | – | – | – | O=[N+]([O-])c1ccc(N=c2nc(Cc3ccccc3)[nH]c(=S)[nH]2)c(Cl)c1 [Compound 8d, 6-Benzyl-4-((2-chloro-4-nitrophenyl)imino)-3,4-dihydro-1,3,5-triazine-2(1H)-thione] | 47.86 ± 0.05 | 39.55 ± 0.08 | 14.77 ± 0.05 | 9.5 ± 0.06 | 179 ± 19 | SI = 3.74 | SI = 4.52 | SI = 12.12 | SI = 18.85 | – | – | – |
| – | – | – | – | COc1cccc2c1C(=O)c1c(O)c3c(c(O)c1C2=O)C[C@@](O)(C(=O)CO)C[C@@H]3O[C@H]1C[C@H](N)[C@H](O)[C@H](C)O1 [DOX, doxorubicin, reference compound] | 4.51 ± 0.26 | 8.11 ± 0.05 | – | 8.2 ± 0.08 | 250 ± 26.6 | – | – | – | – | – | – | – |
| – | – | – | – | C#Cc1cccc(Nc2ncnc3cc(OCCOC)c(OCCOC)cc23)c1 [erlotinib, reference compound] | – | 8.89 ± 0.6 | – | 3.76 ± 0.2 | 45.8 ± 26.6 | – | – | – | – | – | – | – |
